Here are results for 24 molecules from ChEMBL document CHEMBL1201862, “PubChem BioAssay data set” (2004).

Experiment in all cases: DTP human tumour cell line panel, 48 h
The test system of test [1] is DLD-1.
Test [2] deals with SNB-78.
Test [3] relates to HOP-18.
Test [4] concerns XF498.
Test [5] has as its system M19-MEL.
The subject of test [6] is DMS-114.
Test [7] relates to DMS-273.
The test system of test [8] is LXFL 529.
The subject of test [9] is RXF 631.

The structures appear in SMILES notation.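 Briefly, cells in 96-well plates were exposed to five compound concentrations for 48 h, and endpoints were estimated by linear interpolation. GI50: concentration for 50% inhibition of growth.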 The source made the active and inactive calls. Rule as the data show it: active = GI50 up to about 1.1 µM and inactive = higher.

With `CC(=O)OC1C(O)C(C)OC(OC2C(OC(=O)C3CCC4C(C3)OC3(CC(OC(=O)/C=C/c5ccccc5)C(C)CO3)C43CO3)OC(C)C(O)C2OC(C)=O)C1O` (stereo not given), the GI50 (commonly the concentration giving 50% growth inhibition) is 0.38 µM (active) in test [1]; 0.056 µM (active) in test [2]; 0.0906 µM (active) in [3]; 0.0357 µM (active) in test [4]; 0.0174 µM (active) in [5]; 0.0251 µM (active) in test [6]. Also, the GI50 in test [7] is 0.0259 µM (active).
Consider `CC(C)C(NCc1c2ccccc2[n+](C)c2ccccc12)C(=O)O` (stereo not given), for which the GI50 was 2.39 µM (inactive) in [1]; 5.73 µM (inactive) in test [2]; 5.78 µM (inactive) in test [3]; 4.99 µM (inactive) in test [4]; 3.53 µM (inactive) in test [8]; 7.33 µM (inactive) in test [5]. Moreover, the GI50 in test [6] was 2.28 µM (inactive); in test [9], 4.74 µM (inactive); in test [7] it was 3.25 µM (inactive).
Turning to `Cc1ccc(C)c(N2C(=O)C(=O)C(c3nc4ccccc4o3)C(=O)C2=O)c1`, the GI50 in test [1] was 22.9 µM (inactive); in [2], > 100 µM (inactive); in test [3], > 100 µM (inactive); in [8], 48.9 µM (inactive); in [5] it was 59.2 µM (inactive); in test [6], 44 µM (inactive). In addition, the GI50 in test [9] and in test [7] was > 100 µM (inactive) in each case.
As to `COc1cccc2c1C(=O)OC2c1cccc2ccccc12` (stereo not given), the GI50 in test [1] was > 100 µM (inactive); in test [2], > 100 µM (inactive); in [3] it was > 85.5 µM (inactive); in [4], 34.8 µM (inactive); in test [8], > 100 µM (inactive); in test [5] it was > 100 µM (inactive). Besides, the GI50 in test [6] and in [7] was > 100 µM (inactive) throughout.
Regarding `CNC(=O)OC1/C(C)=C\C(C)C(O)C(OC)CC(C)CC2=C(OC)C(=O)C=C(C2=O)N(C)C(=O)/C(C)=C/C=C\C1OC` (stereo not given), the GI50 was 1.96 µM (inactive) in test [1]; 7.21 µM (inactive) in test [2]; 9.27 µM (inactive) in test [3]; 3.72 µM (inactive) in test [4]; 4.86 µM (inactive) in test [8]; 5 µM (inactive) in test [5]. The GI50 is 4.99 µM (inactive) in test [6], 15.1 µM (inactive) in test [9] and 3.31 µM (inactive) in test [7].
Take `O=C(NC1=C(Cl)C(=O)c2ccccc2C1=O)C(=O)C(C(=O)c1ccc2ccccc2c1)C1OC(=O)c2ccccc21` (stereo not given): the GI50 in [1] was 4.31 µM (inactive); in [2], 3.76 µM (inactive); in test [8], 4.43 µM (inactive); in [5], 0.309 µM (active); in test [6], 2.36 µM (inactive).
For `Cc1cccc(C2SCc3nc4ccccc4n32)c1` (stereo not given), the GI50 was 25.2 µM (inactive) in [1]; 27.5 µM (inactive) in [2]; < 0.01 µM (active) in [3]; 25.2 µM (inactive) in test [8]; 24 µM (inactive) in test [5]; 10.9 µM (inactive) in test [6].
For `O=Cc1cc(O)c(O)c(O)c1-c1c(C=O)cc(O)c(O)c1O`, the GI50 in test [1] is > 100 µM (inactive); in [2] it was > 100 µM (inactive); in test [3], > 100 µM (inactive); in test [8], > 100 µM (inactive); in [5], > 100 µM (inactive); in [6] it was 79.8 µM (inactive). Further, the GI50 in test [7] was > 100 µM (inactive).
Turning to `Cc1cc(N(CCOS(C)(=O)=O)CCOS(C)(=O)=O)ccc1/C=N/c1ccc(-c2nc(Cc3ccccc3)sc2C)cc1`, the GI50 was 12.8 µM (inactive) in [1]; 32.9 µM (inactive) in test [2]; 6.64 µM (inactive) in test [3]; 2.26 µM (inactive) in test [4]; 16.6 µM (inactive) in test [8]; 10 µM (inactive) in [5]. Further, the GI50 in test [6] was 7.91 µM (inactive); in test [7], 1.87 µM (inactive).
For `N#CC(N)(C(=O)C(=O)NCCCNC(=O)C(=O)C(N)(C#N)c1ccc(Cl)cc1)c1ccc(Cl)cc1` (stereo not given), the GI50 in [1], in test [2], in test [3], in test [4], in [8] and in [5] was > 100 µM (inactive) throughout. The GI50 in test [6], in test [9] and in test [7] was > 100 µM (inactive) in each case.
On to `CCC1(Cl)C(=O)NC(=O)N(C2CC(O)C(CO)O2)C1N=[N+]=[N-]` (stereo not given), for which the GI50 in test [1] was > 100 µM (inactive); in test [2] it was > 100 µM (inactive); in [4] it was > 100 µM (inactive); in test [8], > 100 µM (inactive); in test [5], > 100 µM (inactive); in test [6], 80.4 µM (inactive). For the same molecule, the GI50 in test [9] and in [7] was > 100 µM (inactive) in each case.
On to `N#CC(C(=O)/C(=N/Nc1nc(S)nn1N)C(C#N)c1ccccc1)c1ccccc1` (stereo not given), for which the GI50 in [1] was > 100 µM (inactive); in [2], > 100 µM (inactive); in test [3], 0.403 µM (active); in test [4], > 100 µM (inactive); in [8] it was > 100 µM (inactive); in test [5], > 100 µM (inactive). Also, the GI50 in test [6], in [9] and in test [7] was > 100 µM (inactive) each time.
As for `CC1=CCC2(C#N)CCC1C2=O` (stereo not given), the GI50 in test [1], in test [2], in test [4], in [8], in test [5] and in test [6] was > 100 µM (inactive) throughout. In addition, the GI50 in test [9] was > 100 µM (inactive).
As for `CC1=C2C(=O)C3[C@@H](CCC4=CC(=O)CC[C@@]43C)C2CC[C@]12O[C@@H]1C[C@H](C)CN[C@H]1[C@H]2C` (stereo not given in full), the GI50 was > 100 µM (inactive) in test [1]; 49.3 µM (inactive) in test [3]; 12.6 µM (inactive) in [4]; 34.5 µM (inactive) in [8]; 36.2 µM (inactive) in test [5]; 15.3 µM (inactive) in test [6]. Moreover, in test [7], the GI50 is 17.7 µM (inactive).
In the case of `CCOC(=O)CN(Cc1ccccc1)Cc1c(C(=O)c2ccccc2)c2ccccc2n1C(=O)c1ccccc1`, the GI50 is > 100 µM (inactive) in test [1]; > 100 µM (inactive) in test [2]; 73.1 µM (inactive) in [4]; 8.57 µM (inactive) in test [8]; > 100 µM (inactive) in test [5]; > 100 µM (inactive) in test [6]. In test [7], the GI50 is > 100 µM (inactive).
For the molecule `COc1ccc2c(c1)c(=O)c1c(NCCCN(C)C)ccc3ncn2c31`, the GI50 in test [1] is 1.14 µM (inactive); in [2], 7.48 µM (inactive); in [3], 11.2 µM (inactive); in [4] it was 5.35 µM (inactive); in [8] it was 3.41 µM (inactive); in test [5], 9.08 µM (inactive). The GI50 is 10.6 µM (inactive) in test [6] and 1.07 µM (active) in [7].
Consider `CC/C(CC(=O)CCC(=O)Nc1c(C)cccc1C)=N\NC(=O)NN`, for which the GI50 in test [1], in test [2], in test [3], in test [8], in test [5] and in [9] was > 100 µM (inactive) each time.
Regarding `O=NN(CCCl)C(=O)NCc1ccc[n+]([O-])c1`, the GI50 in [1], in test [2], in test [4], in test [8], in test [5] and in test [6] was > 100 µM (inactive) each time. For the same molecule, the GI50 in test [9] was > 100 µM (inactive).
As for `COc1cccc(NC(=O)C(C)(C)C)c1SSc1c(NC(=O)C(C)(C)C)cccc1OC`, the GI50 in [1] was > 43.7 µM (inactive); in [2], 22.3 µM (inactive); in test [3], > 69.7 µM (inactive); in test [4], 15.2 µM (inactive); in test [8], 15.8 µM (inactive); in [5], 35.2 µM (inactive). Besides, the figures for the GI50 in test [6] and in test [7] were > 10 µM (inactive) and 96.8 µM (inactive), respectively.
Turning to `CN(C)C(=O)Nc1c([N+](=O)[O-])cc(C(F)(F)F)cc1[N+](=O)[O-]`, the GI50 in [2] was 33.5 µM (inactive); in test [4], 16.8 µM (inactive); in test [8], 40.9 µM (inactive); in test [7], 43.8 µM (inactive).
Turning to `CC1=CC(=O)CCC2(C)C1CC[C@@H]2OC=O` (stereo not given in full), the GI50 in test [1], in test [2], in test [3], in [4], in test [8] and in test [5] was > 100 µM (inactive) throughout. Moreover, the GI50 in test [6], in [9] and in [7] was > 100 µM (inactive) each time.
As for `CC1OC(OC2C(OC(=O)[C@]34CCC(C)(C)CC3C3=CCC5[C@@]6(C)C[C@H](O)[C@H](OC7OC(CO)C(O)C(O)C7N)[C@@](C)(C(=O)O)C6CC[C@@]5(C)C3(C)CC4)OCC(O)C2O)C(O)C(O)C1OC1OCC(O)C(O)C1O` (stereo not given in full), the GI50 in test [1], in [2], in test [3], in test [5], in test [6] and in test [7] was > 100 µM (inactive) in each case.
Turning to `COc1cc2c(cc1OC)[C@@H](Nc1ccc(F)cc1)C1COC(=O)[C@@H]1C2c1cc(OC)c(O)c(OC)c1` (stereo not given in full), the GI50 was 3.13 µM (inactive) in test [1]; > 20.4 µM (inactive) in test [2]; 5.35 µM (inactive) in [3]; 3 µM (inactive) in test [4]; 19.6 µM (inactive) in test [8]; 5.08 µM (inactive) in test [5]. The GI50 was 1.15 µM (inactive) in [6], 1.73 µM (inactive) in test [9] and 0.0832 µM (active) in test [7].
As for `COC(=O)c1cc2c3ccccc3n(C(C)=O)c2cn1`, the GI50 is > 100 µM (inactive) in test [1]; > 100 µM (inactive) in [2]; 44.9 µM (inactive) in test [3]; 38.6 µM (inactive) in test [4]; 66.4 µM (inactive) in test [8]; > 100 µM (inactive) in test [5]. The results for the GI50 in test [6], in test [9] and in test [7] were > 100 µM (inactive), 77.6 µM (inactive) and > 100 µM (inactive), respectively.
